Measured values as given in US20050032243A1, “Method and apparatus for rapid determination of ligand-protein binding using charcoal adsorption” (priority 2001, published 2005).
One block for each compound: values may come before it.

Legend:
[1] = molecular target: T1, human serum albumin (HSA) (Homo sapiens, UniProt P02768); test: Extent of DCC adsorption as a function of unbound fraction (HSA dilutions, ultrafiltration)
Procedure: Solutions were allowed to incubate at room temperature for 30 minutes and 200 μl samples were loaded onto the DCC cartridge. Elution was initiated and samples collected under vacuum at 5, 10 and 60 seconds.
(§1) Ultrafiltration Experiments. […] Samples (0.5 ml) were centrifuged (1500×g; 3 minutes) at 25° C.
0.1 μCi/ml) in isotonic PBS and dilutions of a 40 mg/ml HSA solution were prepared. Solutions were allowed to incubate at room temperature for 30 minutes and 200 μl samples were loaded onto the DCC cartridge. Elution was initiated and samples were collected under vacuum at 1 second and at 60 seconds. Adsorption of each ligand also was evaluated after 2 hours of DCC exposure.
as §1
Evaluation of Alternative HSA Site I-Specific Ligands.
The relationship between the extent of adsorption and the unbound fraction for each ligand can be described by Equation 1. y=yo+a(1−e^−bx) Equation 1

HSA = conditions: literature reference value; cited from earlier work
[2] = molecular target: T1, human serum albumin (HSA); test: Time course of ligand adsorption in packed-bed DCC cartridge in the presence of HSA; conditions: HSA 40 mg/ml, at termination of experiment (5 minutes)
[3] = 1 minute DCC exposure, mean ± SE

T1 sequence (P02768 25-609): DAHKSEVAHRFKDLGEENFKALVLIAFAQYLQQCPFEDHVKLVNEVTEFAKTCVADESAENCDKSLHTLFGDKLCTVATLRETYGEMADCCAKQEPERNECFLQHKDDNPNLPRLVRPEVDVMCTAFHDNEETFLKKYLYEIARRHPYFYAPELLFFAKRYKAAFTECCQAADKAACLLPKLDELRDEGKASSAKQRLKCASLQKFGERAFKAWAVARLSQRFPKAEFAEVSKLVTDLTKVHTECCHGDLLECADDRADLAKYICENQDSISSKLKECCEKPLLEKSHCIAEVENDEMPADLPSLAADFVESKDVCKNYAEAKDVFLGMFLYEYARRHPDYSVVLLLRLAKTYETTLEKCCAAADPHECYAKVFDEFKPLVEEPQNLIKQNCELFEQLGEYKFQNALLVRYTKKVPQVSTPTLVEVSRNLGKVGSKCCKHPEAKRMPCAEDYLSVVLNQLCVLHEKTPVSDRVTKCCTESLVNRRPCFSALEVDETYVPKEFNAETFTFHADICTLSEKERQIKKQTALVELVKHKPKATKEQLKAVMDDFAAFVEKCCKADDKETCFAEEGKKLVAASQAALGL

Structure (SMILES): C[C@H]1O[C@@H](O[C@H]2[C@@H](O)C[C@H](O[C@H]3[C@@H](O)C[C@H](O[C@H]4CC[C@@]5(C)[C@H](CC[C@@H]6[C@@H]5CC[C@]5(C)[C@@H](C7=CC(=O)OC7)CC[C@]65O)C4)O[C@@H]3C)O[C@@H]2C)C[C@H](O)[C@@H]1O [[^3H]-DIGT, digitoxin]
Yo (intercept of Equation 1, extent of adsorption at unbound fraction 0) [1, 3]: 0
a (empirical parameter of Equation 1) [1, 3]: 95.6 ± 0.3
b (empirical parameter of Equation 1) [1, 3]: 29.5 ± 0.7
DCC adsorption as unbound fraction approached 0.2 ([1]; 1 minute of charcoal exposure): nearly complete
UNBOUND FRACTION (HSA): 0.05
adsorption to DCC in the presence of HSA [2]: ~100%

adsorption after 1 minute of exposure to DCC, restricted or not [1]: not restricted
Structure (SMILES): O=C1NC(=O)C(c2ccccc2)(c2ccccc2)N1 [[^3H]-DPH, diphenylhydantion]
UNBOUND FRACTION (HSA): 0.12

Structure (SMILES): CC(C)NCC(O)COc1cccc2ccccc12 (stereo not drawn) [[^3H]-PRO, propanonol]
UNBOUND FRACTION (HSA): 0.13

Structure (SMILES): N[C@@H](Cc1c[nH]c2ccccc12)C(=O)O [[^3H]-TRP, L-tryptophan]
UNBOUND FRACTION (HSA): 0.5

a (empirical parameter of Equation 1) [1]: 82.9 ± 8.6
b (empirical parameter of Equation 1) [1]: 1.5 ± 0.4
Yo (intercept of Equation 1, extent of adsorption at unbound fraction 0) ([1]; human): 27.0 ± 4.1
fraction unbound at 10 mg/ml ([1]; human): ~0.8
Structure (SMILES): CCCC(CCC)C(=O)O [[^3H]-VPA, valproic acid, valproate]
UNBOUND FRACTION (HSA): 0.1
